Laboratory results as given in patent publication US8273778B2, “Inhibitors of UDP-galactopyranose mutase thwart mycobacterial growth” (Wisconsin Alumni Research Foundation, priority 2008, dated 2012).
Like-named read-outs stand apart in the source and are kept apart here.

Columns and labels:
[1] = molecular target: UGMmyco (Mycobacterium tuberculosis, UniProt P9WIQ1); test: HPLC assay of UGMmyco conversion of UDP-galactofuranose to UDP-galactopyranose (inhibition, kinetics); format: biochemical; conditions: initial rates at various UDP-Galf, 25 or 50 μM inhibitor, 11 nM UGMmyco, pH 7
Chain of UGMmyco (P9WIQ1 whole entry): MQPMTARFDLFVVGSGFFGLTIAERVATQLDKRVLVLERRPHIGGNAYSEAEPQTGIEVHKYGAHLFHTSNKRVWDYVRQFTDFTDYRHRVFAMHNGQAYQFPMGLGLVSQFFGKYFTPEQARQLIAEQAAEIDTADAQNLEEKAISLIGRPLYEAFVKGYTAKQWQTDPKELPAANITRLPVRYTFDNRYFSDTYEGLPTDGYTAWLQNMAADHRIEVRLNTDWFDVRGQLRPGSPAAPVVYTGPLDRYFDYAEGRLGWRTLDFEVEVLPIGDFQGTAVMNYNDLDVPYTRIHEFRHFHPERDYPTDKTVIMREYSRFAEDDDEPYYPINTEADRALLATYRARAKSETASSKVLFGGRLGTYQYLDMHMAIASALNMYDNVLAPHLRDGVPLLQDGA
Procedure: UGMmyco inhibition was assessed using a previously described HPLC assay to measure the extent of enzymatic conversion of UDP-galactofuranose to UDP-galactopyranose. (Carlson, E. E.; May, J. F.; Kiessling, L. L. Chem. Biol. 2006, 13, 825-837.)
The relative activity of UGMmyco in the presence of DMSO alone was compared to that in the presence of 50 μM of selected aminothiazoles. Enzymatic reaction conditions were as follows: 50 μM UDP-Galf, 4 μM UGMmyco and 20 mM DTT in 4% DMSO v/v. The mean activities of UGMmyco in the presence of the aminothiazoles are presented in order of decreasing binding affinities to highlight the relationship between enzyme inhibition and binding affinity.
The inhibition curves look similar to the binding curves depicted in FIGS. 5A and 5B. […] In the graphs of these figures, conversion is the amount of UDP-Galp formed divided by the amount of total UDP-Gal (UDP-Galp+UDP-Galf). The data were fit to the equation as previously described. (Soltero-Higgin, M.; Carlson, E. E.; Phillips, J. H.; Kiessling, L. L., Identification of inhibitors for UDP-galactopyranose mutase. J. Am. Chem. Soc. 2004, 126, 10532-10533.)
For inhibitor kinetic assays, the initial rate of UGMmyco was determined at various UDP-Galf concentrations in the presence of either DMSO alone (4% v/v), 25 μM inhibitor, or 50 μM inhibitor. […] Product formation was analyzed using a HPLC-based assay. […]

[2] = molecular target: T1, UGM from Mycobacterium tuberculosis (UGMmyco) (Mycobacterium tuberculosis, UniProt P9WIQ1); test: Fluorescence polarization binding / inhibition assay, UGMmyco
T1 sequence (P9WIQ1 whole entry): as above
Procedure: (§1) Serial dilutions of dialyzed UGM (maximum concentration was typically 30 μM) was incubated with 15 nM of fluorescent compounds 5a-5f, 6 or 11 in 50 mM sodium phosphate buffer, pH 7.0 at 25° C. Final volumes were 30 μL in 384 well black microtiter plates (Costar). Fluorescence polarization was analyzed using a Wallac EnVision plate reader. Data were fit to y=m1+((m2−m1)*x^m3)/(m4^m3+x^m3); m2=maximum FP signal, m1=minimum FP signal, m3=slope, m4=binding constant (KaleidaGraph, Synergy Software).
The fluorescence polarization inhibition assay was performed as previously described (22). Reactions contained 580 nM UGMmyco or 500 nM UGMkleb and 15 nM of the fluorescent probe 5c in 50 mM sodium phosphate buffer, pH 7.0 at 25° C. Final volumes were 30 μL in 384 well black microtiter plates (Costar). Serial dilutions of UDP, 4d or 7 were added to the wells. Fluorescence polarization was analyzed using a Wallac EnVision plate reader. Data were fit to y=m1+((m2−m1)*x^m3)/(m4^m3+x^m3); m2=maximum FP signal, m1=minimum FP signal, m3=slope, m4=apparent binding constant (KaleidaGraph, Synergy Software). […]. FIGS. 13A and 13B are graphs illustrating determination of Kd for compound II for UGMmyco (FIG. 13A) and UGMkleb (FIG. 13B).

[3] = molecular target: T2, UGM from Klebsiella pneumoniae (UGMkleb) (Klebsiella pneumoniae, UniProt Q48485); test: Fluorescence polarization binding / inhibition assay, UGMkleb
T2 sequence (Q48485 24-384): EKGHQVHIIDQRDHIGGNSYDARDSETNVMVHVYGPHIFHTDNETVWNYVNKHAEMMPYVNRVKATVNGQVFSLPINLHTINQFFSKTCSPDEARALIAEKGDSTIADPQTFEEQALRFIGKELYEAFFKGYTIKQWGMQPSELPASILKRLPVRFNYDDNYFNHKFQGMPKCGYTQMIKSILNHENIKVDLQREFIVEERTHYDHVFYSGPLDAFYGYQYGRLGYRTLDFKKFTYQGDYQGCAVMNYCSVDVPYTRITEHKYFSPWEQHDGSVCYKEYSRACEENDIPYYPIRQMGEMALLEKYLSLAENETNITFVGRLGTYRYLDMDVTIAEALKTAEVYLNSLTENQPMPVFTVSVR
Procedure: as §1
The fluorescence polarization inhibition assay was performed as previously described (22). Reactions contained 580 nM UGMmyco or 500 nM UGMkleb and 15 nM of the fluorescent probe 5c in 50 mM sodium phosphate buffer, pH 7.0 at 25° C. Final volumes were 30 μL in 384 well black microtiter plates (Costar). Serial dilutions of UDP, 4d or 7 were added to the wells. Fluorescence polarization was analyzed using a Wallac EnVision plate reader. Data were fit to y=m1+((m2−m1)*x^m3)/(m4^m3+x^m3); m2=maximum FP signal, m1=minimum FP signal, m3=slope, m4=apparent binding constant (KaleidaGraph, Synergy Software). To determine Kd values, the apparent binding constant was then subjected to Kapp=Kd(1+(I)/KI), where I=concentration of the fluorescent probe and KI=binding affinity of the fluorescent probe to UGM. […] FIGS. 13A and 13B are graphs illustrating determination of Kd for compound II for UGMmyco (FIG. 13A) and UGMkleb (FIG. 13B).

[4] = tested on: UGM; test: Fluorescence polarization assay, UGM homolog not specified (UGMkleb or UGMmyco); format: binding; conditions: concentrations up to 34 μM of either UGMmyco or UGMkleb
[5] = molecular target: T1, UGM from Mycobacterium tuberculosis (UGMmyco); conditions: previous work; read-out: affinity of the probe for UGMmyco; cited from earlier work
[6] = molecular target: T2, UGM from Klebsiella pneumoniae (UGMkleb); conditions: previous work; read-out: affinity of the probe for UGMkleb; cited from earlier work
[7] = Kd (UMGmyco) [μM], Table 2, 50 mM sodium phosphate pH 7.0, 25° C.
[8] = Table 2, 50 mM sodium phosphate pH 7.0, 25° C., read-out: Kd (UMGkleb)
[9] = Table 2, 50 mM sodium phosphate pH 7.0, 25° C., read-out: Kd (UMGmyco)
[10] = Kd (UMGkleb) [μM], Table 2, 50 mM sodium phosphate pH 7.0, 25° C.
[11] = Table 1, UDP-fluorescein conjugates by linker length n, read-out: UGMmyco Kd

Molecule | Kd [2, 7] [µM] | Kd [3, 8] [µM] | Kd [2, 9] [µM] | Kd [2, 11] [µM] | further results
O=C(O)C(Cc1ccc(Cl)cc1)Nc1nc(-c2ccc(Cl)cc2Cl)cs1 (stereo not drawn) | – | – | – | – | Ki [1]: 5300 nM
O=C(O)c1cc(NC(=S)NCCOP(=O)(O)OP(=O)(O)OCC2OC(n3ccc(=O)[nH]c3=O)C(O)C2O)ccc1-c1c2ccc(=O)cc-2oc2cc(O)ccc12 (stereo not drawn) [Compound 5a, UDP-ethanolamine-fluorescein conjugate] | > 30 | > 30 | – | – | Kd ([2]; UGMmyco Kd (μM), Table 1, UDP-fluorescein conjugates by linker length n): > 30 µM
O=C(O)c1cc(NC(=S)NCCOCCOCCOP(=O)(O)OP(=O)(O)OCC2OC(n3ccc(=O)[nH]c3=O)C(O)C2O)ccc1-c1c2ccc(=O)cc-2oc2cc(O)ccc12 (stereo not drawn) [Compound 5f, UDP-3,6-dioxa-octanolamine-fluorescein conjugate] | 0.575 ± 0.016 | 0.767 ± 0.017 | – | – | fold lower affinity than compound 5d ([2]; UGMmyco, relative to 5d (eight methylene linker)): more than 10 fold; fold greater affinity than UDP ([2]; UGMmyco, relative to UDP): 20 fold
O=C(O)c1cc(NC(=S)NCCOCCOCCOCCOP(=O)(O)OP(=O)(O)OCC2OC(n3ccc(=O)[nH]c3=O)C(O)C2O)ccc1-c1c2ccc(=O)cc-2oc2cc(O)ccc12 (stereo not drawn) [Compound 5g, UDP-3,6,9-trioxa-undecanolamine-fluorescein conjugate] | 1.07 ± 0.1 | 1.2 ± 0.14 | – | – | –
O=C(O)c1cc(NC(=S)NCCCCCCCCO)ccc1-c1c2ccc(=O)cc-2oc2cc(O)ccc12 [Compound 6, Octanolamine-fluorescein conjugate] | – | – | > 30 | – | Kd [3, 10]: > 30 µM; binding of fluorophore alone [4]: no binding was observed
O=c1ccn(C2OC(COP(=O)([O-])OP(=O)(O)OCCCCCCCCNC(=S)Nc3cccc4ccccc34)C(O)C2O)c(=O)[nH]1.[Na+] (stereo not drawn) [Compound 7, UDP-octanolamine-naphthyl conjugate] | 0.61 ± 0.109 | 0.583 ± 0.036 | – | – | –
O=C(O)c1cc(NC(=S)NCCCCCCCCc2ccc(-c3csc(NC(Cc4ccc(Cl)cc4)C(=O)O)n3)cc2)ccc1-c1c2ccc(=O)cc-2oc2cc(O)ccc12 (stereo not drawn) [Compound 11, Aminothiazole-fluorescein conjugate] | – | – | 0.295 ± 0.066 | – | Kd ([2]; read-out: Kd / affinity for UGMmyco): 0.3 µM; Kd [3, 10]: 0.385 ± 0.035 µM; Kd ([3]; Kd / affinity for UGMkleb): 0.38 µM
O=c1ccn([C@@H]2O[C@H](COP(=O)(O)OP(=O)(O)O)[C@@H](O)[C@H]2O)c(=O)[nH]1 [UDP, uridine 5′-diphosphate, reference compound] | 15.1 ± 1.7 | 26 ± 1.7 | – | – | Kd ([2]; Kd / affinity for UGMmyco): 15 µM; Kd ([3]; read-out: Kd / affinity for UGMkleb): 26 µM
UDP-butanolamine-fluorescein conjugate [Compound 5b] | – | 1.94 ± 0.15 | 2.51 ± 0.28 | 2.5 | –
UDP-decanolamine-fluorescein conjugate [Compound 5e] | – | 0.07 ± 0.002 | 0.064 ± 0.004 | 0.064 | –
UDP-hexanolamine-fluorescein conjugate [Compound 5c] | – | 0.193 ± 0.011 | 0.166 ± 0.014 | 0.17 | Kd [5]: 160 nM; Kd [6]: 100 nM
UDP-octanolamine-fluorescein conjugate [Compound 5d] | – | 0.045 ± 0.002 | 0.054 ± 0.006 | 0.054 | –
Uridine 5′-diphosphooctanolamine, ammonium salt [Compound 4d] | – | 37.7 ± 1.5 | 32 ± 3.4 | – | –
